Test results as given in patent US12643910B2, “Substituted pyrazolo[3,4-b]pyridines as ectonucleotide pyrophosphatase/phosphodiesterase 1 (ENPP1) modulators” (SANFORD BURNHAM PREBYS MEDICAL DISCOVERY INSTITUTE, priority 2019, dated 2026).

Key:
human ENPP1 = target: T1, human ENPP1 (Homo sapiens, UniProt P22413); assay: ENPP1 assay with ATP substrate (Transcreener AMP2/GMP2 TR-FRET); format: biochemical; details: 1 hour at room temperature
T1 construct: made in house
T1 sequence (P22413 1-925): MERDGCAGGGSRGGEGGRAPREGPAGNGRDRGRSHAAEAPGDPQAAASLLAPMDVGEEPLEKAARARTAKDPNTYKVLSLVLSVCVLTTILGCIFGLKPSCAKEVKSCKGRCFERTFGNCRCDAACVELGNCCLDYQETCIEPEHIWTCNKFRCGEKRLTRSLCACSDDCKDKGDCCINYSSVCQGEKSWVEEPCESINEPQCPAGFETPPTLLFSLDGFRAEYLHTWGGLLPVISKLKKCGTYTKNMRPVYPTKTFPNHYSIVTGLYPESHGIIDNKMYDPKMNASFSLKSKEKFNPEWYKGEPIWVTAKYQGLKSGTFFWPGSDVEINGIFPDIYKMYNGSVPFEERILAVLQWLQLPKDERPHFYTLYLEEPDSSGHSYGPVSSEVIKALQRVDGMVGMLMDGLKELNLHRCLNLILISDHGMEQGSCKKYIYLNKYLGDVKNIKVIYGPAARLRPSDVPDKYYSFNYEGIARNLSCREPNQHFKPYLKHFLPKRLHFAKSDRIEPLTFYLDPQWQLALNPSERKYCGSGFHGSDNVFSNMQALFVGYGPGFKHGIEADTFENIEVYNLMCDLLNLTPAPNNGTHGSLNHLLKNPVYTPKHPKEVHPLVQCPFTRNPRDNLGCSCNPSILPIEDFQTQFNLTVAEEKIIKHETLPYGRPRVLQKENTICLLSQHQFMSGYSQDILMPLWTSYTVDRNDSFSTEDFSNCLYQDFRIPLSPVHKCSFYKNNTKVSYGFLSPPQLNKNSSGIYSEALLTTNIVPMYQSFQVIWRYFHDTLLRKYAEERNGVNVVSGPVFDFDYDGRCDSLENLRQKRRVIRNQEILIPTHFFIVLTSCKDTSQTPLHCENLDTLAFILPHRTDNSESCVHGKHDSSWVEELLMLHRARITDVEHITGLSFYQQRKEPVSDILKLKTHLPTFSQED
Method in brief: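 Reaction ran 1 h at room temperature in pH 7.5 Tris with MgCl2, TCEP, Tween 20 and 1% DMSO. ATP was added as a 300 nM stock and enzyme as an 8.5 μM stock. After EDTA stop, AMP was read by TR-FRET tracer displacement. Percent inhibition used enzyme/no-enzyme controls; IC50 was fitted with a variable slope.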

ENPP3 = target: T2, ENPP3 (Homo sapiens, UniProt O14638); assay: ENPP3 Km ATP assay; format: biochemical; details: ATP at Km
T2 sequence (O14638 1-875): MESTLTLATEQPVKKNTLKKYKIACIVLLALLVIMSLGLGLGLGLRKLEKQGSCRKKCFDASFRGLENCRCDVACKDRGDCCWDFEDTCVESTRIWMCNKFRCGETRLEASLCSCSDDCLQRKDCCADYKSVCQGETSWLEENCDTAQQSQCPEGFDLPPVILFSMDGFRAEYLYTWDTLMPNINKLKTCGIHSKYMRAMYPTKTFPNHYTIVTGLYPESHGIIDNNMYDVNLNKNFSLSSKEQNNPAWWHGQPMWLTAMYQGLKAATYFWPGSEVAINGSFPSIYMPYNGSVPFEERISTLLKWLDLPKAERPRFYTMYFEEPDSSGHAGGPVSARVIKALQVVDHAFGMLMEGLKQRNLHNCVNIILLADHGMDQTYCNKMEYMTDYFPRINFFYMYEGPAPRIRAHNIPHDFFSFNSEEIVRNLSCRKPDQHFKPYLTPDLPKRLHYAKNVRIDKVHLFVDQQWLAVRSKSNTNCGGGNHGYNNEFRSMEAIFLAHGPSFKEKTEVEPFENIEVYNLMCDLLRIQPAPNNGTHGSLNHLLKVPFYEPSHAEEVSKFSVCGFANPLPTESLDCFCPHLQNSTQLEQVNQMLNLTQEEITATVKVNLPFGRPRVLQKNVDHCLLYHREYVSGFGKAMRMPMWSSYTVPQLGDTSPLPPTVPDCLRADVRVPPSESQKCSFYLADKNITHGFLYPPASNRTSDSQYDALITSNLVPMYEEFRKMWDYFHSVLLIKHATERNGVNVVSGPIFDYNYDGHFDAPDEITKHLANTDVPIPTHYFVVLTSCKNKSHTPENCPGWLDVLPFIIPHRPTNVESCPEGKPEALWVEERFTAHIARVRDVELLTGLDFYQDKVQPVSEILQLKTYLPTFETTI

Structure (SMILES)	IC50 (human ENPP1) [µM]	IC50 (ENPP3) [µM]
Cn1ncc2c(NCc3ccc(S(N)(=O)=O)c(C(F)(F)F)c3)ncnc21 [Example 2.41, 4-(((1-Methyl-1H-pyrazolo[3,4-d]pyrimidin-4-yl)amino)methyl)-2-(trifluoromethyl)-benzenesulfonamide]	0.1 to 1	1 to 20
COc1cc(CNc2ncnc3c2cnn3C)ccc1S(N)(=O)=O [Example 2.42, 2-Methoxy-4-(((1-methyl-1H-pyrazolo[34-d]pyrimidin-4-yl)amino)methyl)-benzenesulfonamide]	> 20	> 20
CN1CCC(n2ncc3c(NCc4ccc(S(N)(=O)=O)cc4)ncnc32)CC1 [Example 2.43, 4-(((1-(1-Methylpiperidin-4-yl)-1H-pyrazolo[3,4-d]pyrimidin-4-yl)amino)methyl)-benzenesulfonamide]	> 20	1 to 20
Cn1nc(-c2ccccc2)c2c(NCc3ccc(S(N)(=O)=O)cc3)ncnc21 [Example 2.44, 4-(((1-Methyl-3-phenyl-1H-pyrazolo[3,4-d]pyrimidin-4-yl)amino)methyl)-benzenesulfonamide]	< 0.1	< 0.1
Cc1nn(C)c2ncnc(NCc3ccc(S(N)(=O)=O)cc3)c12 [Example 2.45, 4-(((1,3-Dimethyl-1H-pyrazolo[3,4-d]pyrimidin-4-yl)amino)methyl)benzenesulfonamide]	0.1 to 1	0.1 to 1
Cc1cc(CNc2ncnc3c2cnn3C)ccc1S(N)(=O)=O [Example 2.46, 2-Methyl-4-(((1-methyl-1H-pyrazolo[3,4-d]pyrimidin-4-yl)amino)methyl)-benzenesulfonamide]	1 to 20	1 to 20
Cn1ncc2c(NCc3ccc(S(N)(=O)=O)cc3Cl)ncnc21 [Example 2.47, 3-Chloro-4-(((1-methyl-1H-pyrazolo[3,4-d]pyrimidin-4-yl)amino)methyl)-benzenesulfonamide]	0.1 to 1	1 to 20
Cn1ncc2c(NCc3ccc(S(N)(=O)=O)cc3)nc(NCc3ccccc3)nc21 [Example 2.48, 4-(((6-(Benzylamino)-1-methyl-1H-pyrazolo[3,4-d]pyrimidin-4-yl)amino)methyl)-benzenesulfonamide]	0.1 to 1	0.1 to 1
CCNc1nc(NCc2ccc(S(N)(=O)=O)cc2)c2cnn(C)c2n1 [Example 2.49, 4-(((6-(Ethylamino)-1-methyl-1H-pyrazolo[3,4-d]pyrimidin-4-yl)amino)methyl)-benzenesulfonamide]	0.1 to 1	0.1 to 1
Cn1ncc2c(NCc3ccc(S(N)(=O)=O)cc3)nc(Nc3ccccc3)nc21 [Example 2.50, 4-(((1-Methyl-6-(phenylamino)-1H-pyrazolo[3,4-d]pyrimidin-4-yl)amino)methyl)-benzenesulfonamide]	< 0.1	0.1 to 1
Cc1nc(N2CCC(NCCCc3ccncc3)CC2)c2cnn(C)c2n1 [Example 2.51, 1-(1,6-Dimethyl-1H-pyrazolo[3,4-d]pyrimidin-4-yl)-N-(3-(pyridin-4-yl)propyl)piperidin-4-amine]	> 20	> 20
Cn1ncc2c(NCc3ccc(S(N)(=O)=O)nc3)ncnc21 [Example 2.52, 5-(((1-Methyl-1H-pyrazolo[3,4-d]pyrimidin-4-yl)amino)methyl)pyridine-2-sulfonamide]	< 0.1	1 to 20
Cn1ncc2c(NCc3ccc(S(N)(=O)=O)cn3)ncnc21 [Example 2.53, 6-(((1-Methyl-1H-pyrazolo[3,4-d]pyrimidin-4-yl)amino)methyl)pyridine-3-sulfonamide]	0.1 to 1	> 20
Cn1ncc2ncnc(NCc3ccc(S(N)(=O)=O)cc3)c21 [Example 2.54, 4-[(1-Methyl-1H-pyrazolo[4,3-d]pyrimidin-7-ylamino)-methyl]-benzenesulfonamide]	< 0.1	1 to 20
Cn1ncc2c(NCc3ccc(S(N)(=O)=O)cc3)cnnc21 [Example 2.55, 4-(((1-Methyl-1H-pyrazolo[3,4-c]pyridazin-4-yl)amino)methyl)benzenesulfonamide]	0.1 to 1	1 to 20
Cn1ncc2c(NCc3ccc(S(N)(=O)=O)cc3)nncc21 [Example 2.56, 4-(((1-Methyl-1H-pyrazolo[3,4-d]pyridazin-4-yl)amino)methyl)benzenesulfonamide]	> 20	> 20
Cc1noc2ncnc(N3CCC(NCCCc4ccc(F)cc4)CC3)c12 [Example 2.57, N-(3-(4-Fluorophenyl)propyl)-1-(3-methylisoxazolo[5,4-d]pyrimidin-4-yl)piperidin-4-amine]	> 20	> 20
Cn1nnc2c(NCc3ccc(S(N)(=O)=O)cc3)ncnc21 [Example 2.58, 4-(((3-Methyl-3H-[1,2,3]triazolo[4,5-d]pyrimidin-7-yl)amino)methyl)benzenesulfonamide]	1 to 20	1 to 20
Cc1noc2ncnc(NCc3ccc(S(N)(=O)=O)cc3)c12 [Example 2.59, 4-(((3-Methylisoxazolo[5,4-d]pyrimidin-4-yl)amino)methyl)benzenesulfonamide]	1 to 20	1 to 20
Cn1ncc2c(NCc3ccc(S(N)(=O)=O)cc3)ccnc21 [Example 2.60, 4-(((1-Methyl-1H-pyrazolo[3,4-b]pyridin-4-yl)amino)methyl)benzenesulfonamide]	< 0.1	0.1 to 1
Cn1ncc2c(NCc3ccc(S(N)(=O)=O)cc3Cl)ccnc21 [Example 2.61, 3-Chloro-4-(((1-methyl-1H-pyrazolo[3,4-b]pyridin-4-yl)amino)methyl)benzenesulfonamide]	0.1 to 1	0.1 to 1
Cn1ncc2c(NCc3ccc(S(N)(=O)=O)c(C(F)(F)F)c3)ccnc21 [Example 2.62, 4-(((1-Methyl-1H-pyrazolo[3,4-b]pyridin-4-yl)amino)methyl)-2-(trifluoromethyl)-benzenesulfonamide]	< 0.1	0.1 to 1
COc1cc(S(N)(=O)=O)ccc1CNc1ccnc2c1cnn2C [Example 2.63, 3-Methoxy-4-(((1-methyl-1H-pyrazolo[3,4-b]pyridin-4-yl)amino)methyl)benzenesulfonamide]	0.1 to 1	1 to 20
Cn1ncc2c(NCc3ccc(S(N)(=O)=O)cc3F)ccnc21 [Example 2.64, 3-Fluoro-4-(((1-methyl-1H-pyrazolo[3,4-b]pyridin-4-yl)amino)methyl)benzenesulfonamide]	< 0.1	0.1 to 1
COc1cc(CNc2ccnc3c2cnn3C)ccc1S(N)(=O)=O [Example 2.65, 2-Methoxy-4-(((1-methyl-1H-pyrazolo[3,4-b]pyridin-4-yl)amino)methyl)-benzenesulfonamide]	1 to 20	> 20
Cn1ncc2c(NCc3ccc(S(N)(=O)=O)cc3)nccc21 [Example 2.66, 4-(((1-Methyl-1H-pyrazolo[4,3-c]pyridin-4-yl)amino)methyl)benzenesulfonamide]	1 to 20	1 to 20
Cn1ncc2c(NCc3ccc(S(N)(=O)=O)c(F)c3)ccnc21 [Example 2.67, 2-Fluoro-4-(((1-methyl-1H-pyrazolo[3,4-b]pyridin-4-yl)amino)methyl)benzenesulfonamide]	< 0.1	0.1 to 1
